tested on: green peach aphid (Myzus persicae); experiment: whole plant or invertebrate; conditions: in Brassica rapa, 144 h, read-out: mortality in % (aphids killed)
Experimental: Myzus Persicae—Test; (Spray Application) 2
Solvent: 78.0 parts by weight acetone • 1.5 parts by weight dimethylformamide Emulsifier: 0.5 parts by weight alkylarylpolyglcolether
After 6 days mortality in % is determined.

| SMILES | mortality at 500 g/ha [%] |
| --- | --- |
| CCc1ncccc1C(=O)Nc1c(Cl)ncnc1NC1CC1 [3-1, N-(4-Chloro-6-cyclopropylaminopyrimidin-5-yl)-2-ethylnicotinamide] | ≥ 80 |

tested on: not listed separately; experiment: logP (HCOOH); format: physicochemical; conditions: HCOOH (formic acid); Table 2

| SMILES | chromatographic logP |
| --- | --- |
| CCc1ncccc1C(=O)Nc1c(NC2CC2)ncnc1-c1ccc(Cl)cc1 [1-177, N-[4-(4-Chlorophenyl)-6-cyclopropylaminopyemidin-5-yl]-2-ethylnicotinamide] | 1.31 |

same assay, conditions: HCOOH (formic acid); Table 4

| SMILES | chromatographic logP |
| --- | --- |
| CCc1ncccc1C(=O)Nc1c(Cl)ncnc1NC1CC1 [3-1, N-(4-Chloro-6-cyclopropylaminopyrimidin-5-yl)-2-ethylnicotinamide] | 0.79 |

same assay, conditions: Table 2

| SMILES | logP (HCOOH) |
| --- | --- |
| CCc1ncccc1C(=O)Nc1c(NC2CC2)ncnc1-c1ccc(Cn2nc(C(F)(F)F)nc2C(F)(F)F)cc1 [1-258] | 2.07 |
| CCCc1ncccc1C(=O)Nc1c(NC2CC2)ncnc1-c1ccc(Cn2nc(C(F)(F)F)nc2C(F)(F)F)cc1 [1-264] | 1.9 |
| CCc1ncccc1C(=O)Nc1c(NC2CC2)ncnc1-c1ccc(Oc2ncc(C(F)(F)F)cc2Cl)cc1 [1-310] | 1.84 |
| O=C(Nc1c(NC2CC2)ncnc1-c1ccc(F)cc1)c1cc(Cl)cnc1C1CC1 [1-198] | 2.16 |
| CCc1ncccc1C(=O)Nc1c(NC(C)(C)C2CC2)ncnc1-c1ccc(Cl)cc1 [1-151] | 2.22 |
| CCc1ncccc1C(=O)Nc1c(NC2CC2)nc(SC)nc1-c1ccc(Cn2cnc(C(F)(F)C(F)(F)F)n2)cc1 [1-290] | 2.47 |
| CCc1ncccc1C(=O)Nc1c(NC(C)C(F)(F)F)ncnc1-c1ccc(F)cc1 (stereo not drawn) [1-299] | 1.85 |
| CCc1ncccc1C(=O)Nc1c(NC2CC2)ncnc1-c1ccc(F)cc1Cl [1-139] | 0.79 |
| CCc1ncccc1C(=O)Nc1c(NC2CC2)nc(C)nc1-c1ccccc1 [1-275] | 0.76 |
| CCc1ncccc1C(=O)Nc1c(NC(C)(C)C)ncnc1-c1ccc(OC(F)(F)F)cc1 [1-138] | 2.32 |
| Cc1ccccc1C(=O)Nc1c(NC2CC2)ncnc1-c1ccc(C(F)(F)F)cc1 [1-81] | 2.33 |
| CCc1ncccc1C(=O)Nc1c(NC2CC2)ncnc1-c1ccc(SC(F)(F)F)cc1 [1-114] | 1.4 |
| O=C(Nc1c(NC2CC2)ncnc1-c1ccc(C(F)(F)F)cc1)c1cccnc1Cl [1-82] | 1.94 |
| CCc1ncccc1C(=O)Nc1c(NC(C)C2CC2)ncnc1-c1ccc(Cl)cc1 (stereo not drawn) [1-144] | 1.62 |
| O=C(Nc1c(NC2CC2)ncnc1-c1ccc(F)cc1F)c1cccnc1CC(F)(F)F [1-254] | 1.83 |
| Cc1ncccc1C(=O)Nc1c(NC2CC2)ncnc1-c1ccc(OS(=O)(=O)C(C)C)cc1 [1-121] | 1.15 |
| O=C(Nc1c(NC2CC2)ncnc1-c1ccc(C(F)(F)F)cc1)c1ccccc1Cl [1-80] | 2.33 |
| CC(C)Nc1ncnc(-c2ccc(OC(F)(F)F)cc2)c1NC(=O)c1cccnc1Cl [1-76] | 2.05 |
| CCc1ncccc1C(=O)Nc1c(NC2CC2)ncnc1-c1ccc(F)c(F)c1 [1-4] | 1.34 |
| CC(C)c1ncccc1C(=O)Nc1c(NC2CC2)ncnc1-c1ccc(C(F)(F)F)cc1 [1-85] | 2.02 |
| COc1ncccc1C(=O)Nc1c(NC2CC2)ncnc1-c1ccc(OC(F)(F)F)cc1 [1-157] | 2.21 |
| CC(C)Oc1ncccc1C(=O)Nc1c(NC2CC2)ncnc1-c1ccc(F)cc1 [1-163] | 2.19 |

same assay, conditions: Table 4

| SMILES | logP (HCOOH) |
| --- | --- |
| O=C(Nc1c(Cl)ncnc1NC1CC1)c1cccnc1CC(F)(F)F [3-5] | 1.61 |

same assay, conditions: table after Table 9

| SMILES | IogP (HCOOH) |
| --- | --- |
| O=C(Nc1c(NC2CC2)ncnc1-c1ccc(F)cc1)c1ccnn1-c1ccccc1Cl [9-3] | 1.76 |

tested on: mustard beetle larvae (Phaedon cochleariae); experiment: not given; conditions: application rate 500 g/ha; sprayed Chinese cabbage leaf-disks; after 7 days
Experimental: Phaedon Cochleariae —Test; (Spray Application)
Chinese cabbage (Brassica pekinesis) leaf-disks are sprayed with a preparation of the active ingredient of the desired concentration. Once dry, the leaf disks are infested with mustard beetle larvae (Phaedon cochleariae).
After 7 days mortality in % is determined.

| SMILES | mortality in % (beetle larvae killed) |
| --- | --- |
| CCc1ccccc1C(=O)Nc1c(NC2CC2)nc(C)nc1-c1ccccc1 [1-280] | 1-280% |

tested on: Spodoptera litura third instar larvae; experiment: Test against tobacco cutworm (Spodoptera litura) larvae; format: in vivo; conditions: active compound concentration 100 ppm; immersed sweet potato leaves; after 7 days
Experimental: Unless not mentioned otherwise, the test solutions were prepared as follows:
Containing as solvent: Dimethylformamide, 3 parts by weight; and as emulsifier: Polyoxyethylene alkyl phenyl ether, 1 part by weight
Test Against Tobacco Cutworm (Spodoptera litura) Larvae
Leaves of sweet potato were immersed in the test solution at the appropriate concentration, and the leaves were dried in air. The leaves were then placed in a petri dish having a diameter of 9 cm, and ten Spodoptera litura at third instar larvae were released therein. The petri dishes were placed in a temperature-controlled chamber at 25° C. After 2 days and 4 days more sweet potato leaves were added. After 7 days, the number of dead larvae was counted to calculate the insecticidal activity. An insecticidal activity of 100% means that all larvae were killed, whereas an insecticidal activity of 0% means that no larva was killed.

| SMILES | insecticidal activity [%] |
| --- | --- |
| CCc1ncccc1C(=O)Nc1c(NC2CC2)ncnc1-c1ccc(Cn2nc(C(F)(F)F)nc2C(F)(F)F)cc1 [1-258] | 100 |
| O=C(Nc1c(NC2CC2)ncnc1-c1ccc(OC(F)(F)F)cc1)c1cccnc1C1CC1 [1-243] | 100 |
| CCCc1ncccc1C(=O)Nc1c(NC2CC2)ncnc1-c1ccc(Cn2nc(C(F)(F)F)nc2C(F)(F)F)cc1 [1-264] | 100 |
| CCc1ncccc1C(=O)Nc1c(NC2CC2)ncnc1-c1ccc(Oc2ncc(C(F)(F)F)cc2Cl)cc1 [1-310] | 100 |
| O=C(Nc1c(NC2CC2)ncnc1-c1ccc(Cn2nc(C(F)(F)F)cc2C(F)(F)F)cc1)c1cccnc1C1CC1 [1-252] | 100 |
| O=C(Nc1c(NC2CC2)ncnc1-c1ccc(F)cc1)c1cccnc1C1CC1 [1-235] | 100 |
| O=C(Nc1c(NC2CC2)ncnc1-c1ccc(Cn2nc(C(F)(F)F)nc2C(F)(F)F)cc1)c1cccnc1C1CC1 [1-259] | 100 |
| CCc1ncccc1C(=O)Nc1c(NC2CC2)ncnc1-c1ccc(Cn2ccc(C(F)(F)C(F)(F)C(F)(F)F)n2)cc1 [1-267] | 100 |
| O=C(Nc1c(NC2CC2)nc(C(F)(F)F)nc1-c1ccc(F)cc1)c1cccnc1CC(F)(F)F [1-324] | 100 |
| CCc1ncccc1C(=O)Nc1c(NC2CC2)ncnc1-c1ccc(Oc2cccc(C(F)(F)F)n2)cc1 [1-312] | 100 |
| CCc1ncccc1C(=O)Nc1c(NC2CC2)ncnc1-c1ccc(Cc2n[nH]c(C(F)(F)C(F)(F)C(F)(F)F)n2)cc1 [1-319] | 100 |
| CCc1ncccc1C(=O)Nc1c(NC2CC2)nc(C(F)(F)F)nc1-c1ccc(F)cc1F [1-314] | 100 |
| CCCc1ncccc1C(=O)Nc1c(NC2CC2)ncnc1-c1ccc(C#N)cc1 [1-246] | 100 |
| CCCc1ncccc1C(=O)Nc1c(NC2CC2)ncnc1-c1ccc(Cl)cc1Cl [1-244] | 100 |
| CCc1ncccc1C(=O)Nc1c(NC2CC2)ncnc1-c1ccc(Cn2nc(C(F)(F)C(F)(F)F)cc2C(F)(F)F)cc1 [1-247] | 100 |
| CCCc1ncccc1C(=O)Nc1c(NC2CC2)ncnc1-c1ccccc1 [1-237] | 100 |
| O=C(Nc1c(NC2CC2)ncnc1-c1ccc(Cl)cc1)c1cccnc1C(F)(F)C(F)(F)F [1-241] | 100 |
| CCc1ccccc1C(=O)Nc1c(NC2CC2)ncnc1-c1ccc(OC(F)(F)F)cc1 [1-257] | 100 |
| CCc1ncccc1C(=O)Nc1c(NC2CC2)ncnc1-c1ccc(Cn2nc(C(F)(F)C(F)(F)F)cc2C(F)(F)C(F)(F)F)cc1 [1-269] | 100 |
| CCc1ncccc1C(=O)Nc1c(NC2CC2)ncnc1-c1ccc(Cn2ccc(C(F)(F)C(F)(F)F)n2)cc1 [1-266] | 100 |
| CCc1ncccc1C(=O)Nc1c(Cl)ncnc1Nc1ccc(F)cc1 [5-2] | 100 |

| SMILES | insecticidal activity [%] |
| --- | --- |
| CCc1ncccc1C(=O)Nc1c(NC2CC2)ncnc1-c1ccc(Cc2nc(C(F)(F)C(F)(F)C(F)(F)F)n(C)n2)cc1 [1-318] | 100 |
| CCc1ncccc1C(=O)Nc1c(NC2CC2)nc(C(F)(F)F)nc1-c1ccc(F)cc1 [1-313] | 100 |
| CCCc1ncccc1C(=O)Nc1c(NC2CC2)ncnc1-c1ccc(Cl)cc1 [1-239] | 100 |
| O=C(Nc1c(NC2CC2)ncnc1-c1ccc(Cl)cc1)c1cccnc1C1CC1 [1-236] | 100 |
| CCc1ncccc1C(=O)Nc1c(NC2CC2)ncnc1-c1ccc(Oc2ncccc2C(F)(F)F)cc1 [1-311] | 100 |
| CCc1ccccc1C(=O)Nc1c(NC2CC2)ncnc1-c1ccc(Cn2nc(C(F)(F)F)nc2C(F)(F)F)cc1 [1-265] | 100 |
| O=C(Nc1c(NC2CC2)ncnc1-c1ccc(F)cc1F)c1cccnc1C1CC1 [1-240] | 100 |
| N#Cc1ccc(-c2ncnc(NC3CC3)c2NC(=O)c2cccnc2C2CC2)cc1 [1-242] | 100 |
| CCCc1ncccc1C(=O)Nc1c(NC2CC2)ncnc1-c1ccc(F)cc1 [1-238] | 100 |
| CCc1ncccc1C(=O)Nc1c(NC2CC2)ncnc1-c1ccc(Cn2nc(C(F)(F)F)cc2C(F)(F)F)cc1 [1-268] | 100 |
| CCc1ccccc1C(=O)Nc1c(NC2CC2)ncnc1-c1ccc(Cn2cnc(C(F)(F)F)n2)cc1 [1-286] | 100 |
| CCc1ncccc1C(=O)Nc1c(NC2CC2)ncnc1-c1ccc(Oc2nc(C(F)(F)F)cc(C(F)(F)C(F)(F)F)n2)cc1 [1-317] | 100 |
| CCCc1ncccc1C(=O)Nc1c(NC2CC2)ncnc1-c1ccc(F)cc1F [1-245] | 100 |
| O=C(Nc1c(NC2CC2)nc(Cl)nc1-c1ccc(F)cc1)c1cccnc1CC(F)(F)F [1-325] | 100 |
| O=C(Nc1c(NC2CC2)ncnc1-c1ccccc1)c1cccnc1C1CC1 [1-234] | 100 |
| CCc1ncccc1C(=O)Nc1c(NC2CC2)ncnc1-c1ccc(Cl)cc1 [1-177, N-[4-(4-Chlorophenyl)-6-cyclopropylaminopyemidin-5-yl]-2-ethylnicotinamide] | 100 |
| O=C(Nc1c(NC2CC2)ncnc1-c1ccc(Cn2nc(C(F)(F)C(F)(F)F)cc2C(F)(F)F)cc1)c1cccnc1C1CC1 [1-253] | 100 |
| O=C(Nc1c(NC2CC2)ncnc1-c1ccc(F)cc1F)c1cccnc1CC(F)(F)F [1-254] | 100 |
| CCc1ncccc1C(=O)Nc1c(NC2CC2)nc(Cl)nc1-c1ccc(F)cc1 [1-326] | 100 |
| CCc1ncccc1C(=O)Nc1c(NC2CC2)ncnc1-c1ccc(C(F)(C(F)(F)F)C(F)(F)F)cc1 [1-232] | 100 |

From patent publication US20120071496A1, “Aminopyrimidinamides As Pest Control Agents” (Bayer CropScience AG, priority 2009, published 2012)
